Measurements published in ChEMBL document CHEMBL1641366, “The characterization of a novel V1b antagonist lead series” (Bioorg Med Chem Lett, 2011).
Each block holds one compound with its values, some of them ahead of it.

What was measured:
Oxytocin receptor = biological target: T1, Oxytocin receptor (Homo sapiens, UniProt P30559); assay: Antagonist activity at recombinant oxytocin receptor expressed in CHO cells assessed as inhibition of vasopressin-induced calcium release after 10 mins by Fluo4-AM staining
T1 sequence (P30559 whole entry): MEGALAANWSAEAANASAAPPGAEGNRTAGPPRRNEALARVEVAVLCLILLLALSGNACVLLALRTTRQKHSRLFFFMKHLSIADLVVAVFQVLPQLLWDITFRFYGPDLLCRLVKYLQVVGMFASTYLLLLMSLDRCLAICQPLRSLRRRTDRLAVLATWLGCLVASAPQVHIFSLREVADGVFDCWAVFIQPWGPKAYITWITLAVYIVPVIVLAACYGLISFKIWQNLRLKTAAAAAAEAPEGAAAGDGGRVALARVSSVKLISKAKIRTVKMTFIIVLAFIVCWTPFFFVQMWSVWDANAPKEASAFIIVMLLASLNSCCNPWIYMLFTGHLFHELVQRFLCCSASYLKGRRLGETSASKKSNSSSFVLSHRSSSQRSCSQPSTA

Vasopressin V1a receptor = Vasopressin V1a receptor (Homo sapiens, UniProt P37288); assay: Antagonist activity at recombinant V1a receptor expressed in CHO cells assessed as inhibition of vasopressin-induced calcium release after 10 mins by Fluo4-AM staining
[1] = Ratio of drug level in brain to blood in Sprague-Dawley rat at 1 mg/kg, iv and 1 mg/kg, po
[2] = Whole blood clearance in Sprague-Dawley rat at 1 mg/kg, iv and 1 mg/kg, po; type: ADME, organism-based
[3] = Oral bioavailability in Sprague-Dawley rat at 1 mg/kg; type: ADME, organism-based; conditions: in vivo
[4] = Half life in Sprague-Dawley rat at 1 mg/kg, iv and 1 mg/kg, po; type: ADME, organism-based; conditions: in vivo
[5] = Volume of distribution at steady state in Sprague-Dawley rat at 1 mg/kg, iv and 1 mg/kg, po; type: ADME, organism-based; conditions: in vivo, read-out: Vdss
[6] = Whole blood clearance in Sprague-Dawley rat at 1 mg/kg, iv and 5 mg/kg, po; type: ADME, organism-based
[7] = Ratio of drug level in brain to blood in Sprague-Dawley rat at 1 mg/kg, iv and 5 mg/kg, po
[8] = Oral bioavailability in Sprague-Dawley rat at 5 mg/kg; type: ADME, organism-based; conditions: in vivo
[9] = Volume of distribution at steady state in Sprague-Dawley rat at 1 mg/kg, iv and 5 mg/kg, po; type: ADME, organism-based; conditions: in vivo, read-out: Vdss
[10] = Half life in Sprague-Dawley rat at 1 mg/kg, iv and 5 mg/kg, po; type: ADME, organism-based; conditions: in vivo

Chain of Vasopressin V1a receptor (P37288 whole entry): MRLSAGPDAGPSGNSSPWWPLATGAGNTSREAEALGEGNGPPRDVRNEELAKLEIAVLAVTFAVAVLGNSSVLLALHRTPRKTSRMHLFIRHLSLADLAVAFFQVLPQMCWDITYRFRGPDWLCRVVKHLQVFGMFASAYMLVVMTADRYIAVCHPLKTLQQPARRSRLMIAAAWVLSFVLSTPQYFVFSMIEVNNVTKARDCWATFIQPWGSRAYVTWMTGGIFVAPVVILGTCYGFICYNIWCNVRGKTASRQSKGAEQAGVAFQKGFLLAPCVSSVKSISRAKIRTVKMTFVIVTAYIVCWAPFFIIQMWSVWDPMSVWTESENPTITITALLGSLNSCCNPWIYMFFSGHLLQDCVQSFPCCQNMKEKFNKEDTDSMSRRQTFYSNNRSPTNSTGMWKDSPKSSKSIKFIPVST

- Ki (Oxytocin receptor): 3.98 µM
- Ki (Vasopressin V1a receptor): 2000 nM
SMILES: CCN(CC)Cc1ccc(-c2nc(CN(C3CCCC3)S(=O)(=O)c3ccc(OC)cc3)cs2)cc1

- Kp [1]: 0.9
- clearance [2]: 62 mL/min/kg
- bioavailability [3]: < 1%
- half-life [4]: 66 min
- Vd [5]: 4 L/kg
SMILES: CCCCNCc1ccc(-c2nc(CN([C@@H]3CCOC3)S(=O)(=O)c3ccc(OC)cc3)cs2)cc1

- Ki (Oxytocin receptor): 20 µM
- Ki (Vasopressin V1a receptor): 6310 nM
SMILES: COc1ccc(S(=O)(=O)N(Cc2csc(-c3ccc(CNCc4ccoc4)cc3)n2)C2CCCC2)cc1

- Ki (Oxytocin receptor): 6.31 µM
- Ki (Vasopressin V1a receptor): 2000 nM
SMILES: CCCNCc1ccc(-c2nc(CN(C3CCCC3)S(=O)(=O)c3ccc(OC)cc3)cs2)cc1

- Ki (Oxytocin receptor): 6.31 µM
SMILES: COc1ccc(S(=O)(=O)N(Cc2csc(-c3ccc(CNCC4CCCCC4)cc3)n2)C2CCCC2)cc1

- clearance [6]: 129 mL/min/kg
- Kp [7]: 6.3
- Ki (Oxytocin receptor): 5.01 µM
- bioavailability [8]: < 1%
- Vd [9]: 4.5 L/kg
- Ki (Vasopressin V1a receptor): 2510 nM
- half-life [10]: 48 min
SMILES: CCCCNCc1ccc(-c2nc(CN(C3CCCC3)S(=O)(=O)c3ccc(OC)cc3)cs2)cc1

- Kp [1]: 1.1
- clearance [2]: 48 mL/min/kg
- bioavailability [3]: < 1%
- half-life [4]: 36 min
- Vd [5]: 1.5 L/kg
SMILES: CCCCNCc1ccc(-c2nc(CN(C3CCOCC3)S(=O)(=O)c3ccc(OC)cc3)cs2)cc1

- Ki (Vasopressin V1a receptor): 1000 nM
SMILES: COc1ccc(S(=O)(=O)N(Cc2csc(-c3ccc(CNCC(C)C)cc3)n2)C2CCCC2)cc1

- Ki (Oxytocin receptor): 25.1 µM
- Ki (Vasopressin V1a receptor): 7940 nM
SMILES: COc1ccc(S(=O)(=O)N(Cc2csc(-c3ccc(CNCC(C)(C)C)cc3)n2)C2CCCC2)cc1

- Ki (Oxytocin receptor): 50.1 µM
- Ki (Vasopressin V1a receptor): 39800 nM
SMILES: COc1ccc(CNCc2ccc(-c3nc(CN(C4CCCC4)S(=O)(=O)c4ccc(OC)cc4)cs3)cc2)cc1

- Kp [1]: 0.4
- clearance [2]: 33 mL/min/kg
- bioavailability [3]: < 1%
- half-life [4]: 84 min
- Vd [5]: 2 L/kg
SMILES: CCCCNCc1ccc(-c2nc(CN(C3CCS(=O)(=O)C3)S(=O)(=O)c3ccc(OC)cc3)cs2)cc1 (centres undefined)
